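Following 48 hours of exposure in 96-well plates, responses at five concentrations were used to interpolate endpoints linearly. Here, GI50 denotes the concentration required for 50% inhibition of growth.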 Calls of active or inactive are those of the source. Rule as the data show it: active = GI50 up to about 1.1 µM and inactive = higher.
How the values were obtained:
Assay in all cases: NCI-60 cell line screen, 48 h
RXF 393 = test system: RXF 393
SW-620 = test system: SW-620
OVCAR-3 = test system: OVCAR-3
HCT-15 = test system: HCT-15
EKVX = test system: EKVX
NCI-H226 = test system: NCI-H226
MDA-MB-435 = test system: MDA-MB-435
HT-29 = test system: HT-29
MOLT-4 = test system: MOLT-4
MDA-N = test system: MDA-N
HCT-116 = test system: HCT-116
U-251 = test system: U-251
DU-145 = test system: DU-145
NCI-H23 = test system: NCI-H23
SK-MEL-2 = test system: SK-MEL-2
UACC-257 = test system: UACC-257
HCC 2998 = test system: HCC 2998
Malme-3M = test system: Malme-3M
RPMI-8226 = test system: RPMI-8226
M14 = test system: M14

Q: With `O=C(Cc1ccc(Cl)c(Cl)c1)N(CCc1ccc(Cl)c(Cl)c1)CCN1CCCC1` as the molecule, how does the GI50 (RXF 393) read?
A: 1.71 µM (inactive)

Q: What about the GI50 (SW-620) of the same molecule?
A: 1.53 µM (inactive)

Q: And the GI50 (OVCAR-3)?
A: 2.26 µM (inactive)

Q: What about the GI50 (HCT-15) of the same molecule?
A: 1.96 µM

Q: And the GI50 (EKVX)?
A: 1.92 µM (inactive)

Q: What about the GI50 (NCI-H226) of the same molecule?
A: 2.01 µM (inactive)

Q: And the GI50 (MDA-MB-435)?
A: 1.77 µM (inactive)

Q: What about the GI50 (HT-29) of the same molecule?
A: 1.86 µM (inactive)

Q: What about the GI50 (MOLT-4) of the same molecule?
A: 1.34 µM (inactive)

Q: What about the GI50 (MDA-N) of the same molecule?
A: 1.67 µM (inactive)

Q: What about the GI50 (HCT-116) of the same molecule?
A: 1.66 µM (inactive)

Q: And the GI50 (U-251)?
A: 1.71 µM (inactive)

Q: And the GI50 (DU-145)?
A: 2.14 µM (inactive)

Q: What about the GI50 (NCI-H23) of the same molecule?
A: 1.95 µM (inactive)

Q: And the GI50 (SK-MEL-2)?
A: 1.8 µM (inactive)

Q: And the GI50 (UACC-257)?
A: 1.91 µM (inactive)

Q: And the GI50 (HCC 2998)?
A: 1.81 µM (inactive)

Q: What about the GI50 (Malme-3M) of the same molecule?
A: 1.73 µM (inactive)

Q: What about the GI50 (RPMI-8226) of the same molecule?
A: 1.71 µM (inactive)

Q: And the GI50 (M14)?
A: 1.77 µM (inactive)

Q: How did the GI50 (RXF 393) turn out when `O=C(COc1ccc(OCC(=O)N/N=C/c2ccc(-c3ccc(Cl)cc3Cl)o2)c(Cl)c1)N/N=C/c1ccc(-c2ccc(Cl)cc2Cl)o1` was run?
A: 33.6 µM (inactive)

Q: What about the GI50 (SW-620) of the same molecule?
A: > 100 µM (inactive)

Q: And the GI50 (OVCAR-3)?
A: 49.5 µM (inactive)

Q: And the GI50 (HCT-15)?
A: > 100 µM

Q: What about the GI50 (EKVX) of the same molecule?
A: 0.142 µM (active)

Q: What about the GI50 (NCI-H226) of the same molecule?
A: 45.7 µM (inactive)

Q: And the GI50 (MDA-MB-435)?
A: 24.1 µM (inactive)

Q: What about the GI50 (HT-29) of the same molecule?
A: > 100 µM (inactive)

Q: And the GI50 (MOLT-4)?
A: 0.0298 µM (active)

Q: And the GI50 (MDA-N)?
A: 31.6 µM (inactive)

Q: And the GI50 (HCT-116)?
A: > 100 µM (inactive)

Q: And the GI50 (U-251)?
A: 46.7 µM (inactive)

Q: And the GI50 (DU-145)?
A: > 100 µM (inactive)

Q: And the GI50 (NCI-H23)?
A: > 100 µM (inactive)

Q: What about the GI50 (SK-MEL-2) of the same molecule?
A: 17.1 µM (inactive)

Q: What about the GI50 (UACC-257) of the same molecule?
A: > 100 µM (inactive)

Q: And the GI50 (HCC 2998)?
A: 29.8 µM (inactive)

Q: What about the GI50 (Malme-3M) of the same molecule?
A: 82.8 µM (inactive)

Q: What about the GI50 (RPMI-8226) of the same molecule?
A: 12.6 µM (inactive)

Q: What about the GI50 (M14) of the same molecule?
A: > 100 µM (inactive)

Q: Which results are given for `O=C(CCCN1CCC(Nc2ccc(F)cc2)(c2nnnn2C2CCCCC2)CC1)c1ccc(F)cc1`?
A: GI50 (RXF 393): 12.6 µM (inactive); GI50 (SW-620): 22.5 µM (inactive); GI50 (OVCAR-3): 14.8 µM (inactive); GI50 (HCT-15): 15.2 µM; GI50 (EKVX): 15.9 µM (inactive); GI50 (NCI-H226): 17.2 µM (inactive); GI50 (MDA-MB-435): 16.7 µM (inactive); GI50 (HT-29): 8.57 µM (inactive); GI50 (MOLT-4): 5.27 µM (inactive); GI50 (MDA-N): 15.5 µM (inactive); GI50 (HCT-116): 13.2 µM (inactive); GI50 (U-251): 15.3 µM (inactive); GI50 (DU-145): 14.5 µM (inactive); GI50 (NCI-H23): 14.5 µM (inactive); GI50 (SK-MEL-2): 16.3 µM (inactive); GI50 (UACC-257): 21.3 µM (inactive); GI50 (HCC 2998): 16.3 µM (inactive); GI50 (Malme-3M): 29.2 µM (inactive); GI50 (RPMI-8226): 5.42 µM (inactive); GI50 (M14): 16.7 µM (inactive)

Q: With `CCCCCCCCCC/C=C/CC(=O)SCCNC(=O)CCNC(=O)[C@@H](O)C(C)(C)COP(=O)(O)OP(=O)(O)OCC1OC(n2cnc3c(N)ncnc32)C(O)C1OP(=O)(O)O` (some centres not stated) as the molecule, how does the GI50 (RXF 393) read?
A: > 10 µM (inactive)

Q: And the GI50 (SW-620)?
A: > 10 µM (inactive)

Q: And the GI50 (OVCAR-3)?
A: > 10 µM (inactive)

Q: What about the GI50 (HCT-15) of the same molecule?
A: > 10 µM

Q: And the GI50 (EKVX)?
A: > 10 µM (inactive)

Q: And the GI50 (NCI-H226)?
A: > 10 µM (inactive)

Q: What about the GI50 (MDA-MB-435) of the same molecule?
A: > 10 µM (inactive)

Q: And the GI50 (HT-29)?
A: > 10 µM (inactive)

Q: And the GI50 (MOLT-4)?
A: > 10 µM (inactive)

Q: And the GI50 (MDA-N)?
A: > 10 µM (inactive)

Q: And the GI50 (HCT-116)?
A: > 10 µM (inactive)

Q: What about the GI50 (U-251) of the same molecule?
A: > 10 µM (inactive)

Q: What about the GI50 (DU-145) of the same molecule?
A: > 10 µM (inactive)

Q: And the GI50 (NCI-H23)?
A: > 10 µM (inactive)

Q: And the GI50 (UACC-257)?
A: > 10 µM (inactive)

Q: What about the GI50 (HCC 2998) of the same molecule?
A: > 10 µM (inactive)

Q: What about the GI50 (Malme-3M) of the same molecule?
A: > 10 µM (inactive)

Q: And the GI50 (RPMI-8226)?
A: > 10 µM (inactive)

Q: What about the GI50 (M14) of the same molecule?
A: > 10 µM (inactive)

Q: What does the source list for `Nc1c(O)c(C(=O)O)cc2ccccc12`?
A: GI50 (RXF 393): > 100 µM (inactive); GI50 (SW-620): 18.3 µM (inactive); GI50 (OVCAR-3): 24.3 µM (inactive); GI50 (HCT-15): 36.6 µM; GI50 (EKVX): 53.8 µM (inactive); GI50 (NCI-H226): 30.1 µM (inactive); GI50 (MDA-MB-435): 18.8 µM (inactive); GI50 (HT-29): 17 µM (inactive); GI50 (MOLT-4): 29.8 µM (inactive); GI50 (MDA-N): 17.9 µM (inactive); GI50 (HCT-116): 17.5 µM (inactive); GI50 (U-251): 30.3 µM (inactive); GI50 (DU-145): 17.9 µM (inactive); GI50 (NCI-H23): 23.3 µM (inactive); GI50 (SK-MEL-2): 17.7 µM (inactive); GI50 (UACC-257): 17.3 µM (inactive); GI50 (HCC 2998): 94 µM (inactive); GI50 (Malme-3M): 15.3 µM (inactive); GI50 (RPMI-8226): 33.3 µM (inactive); GI50 (M14): 17.7 µM (inactive)

Q: How did the GI50 (RXF 393) turn out when `COc1ccc(/N=N/C(=O)NC(CC(C)C)C(=O)NC(Cc2ccccc2)C(=O)O)cc1` (configuration not stated) was run?
A: > 100 µM (inactive)

Q: And the GI50 (SW-620)?
A: 7.73 µM (inactive)

Q: What about the GI50 (OVCAR-3) of the same molecule?
A: 16.5 µM (inactive)

Q: What about the GI50 (HCT-15) of the same molecule?
A: 0.378 µM

Q: What about the GI50 (EKVX) of the same molecule?
A: 40.3 µM (inactive)

Q: What about the GI50 (NCI-H226) of the same molecule?
A: 23.3 µM (inactive)

Q: And the GI50 (MDA-MB-435)?
A: 0.705 µM (active)

Q: And the GI50 (HT-29)?
A: > 100 µM (inactive)

Q: What about the GI50 (MOLT-4) of the same molecule?
A: 0.706 µM (active)

Q: And the GI50 (MDA-N)?
A: 0.7 µM (active)

Q: And the GI50 (HCT-116)?
A: 32.4 µM (inactive)

Q: And the GI50 (U-251)?
A: > 100 µM (inactive)

Q: And the GI50 (DU-145)?
A: 0.634 µM (active)

Q: And the GI50 (NCI-H23)?
A: 16.3 µM (inactive)

Q: What about the GI50 (UACC-257) of the same molecule?
A: 3.41 µM (inactive)

Q: What about the GI50 (HCC 2998) of the same molecule?
A: 2.63 µM (inactive)

Q: And the GI50 (Malme-3M)?
A: 7.55 µM (inactive)

Q: What about the GI50 (RPMI-8226) of the same molecule?
A: 2.28 µM (inactive)

Q: What about the GI50 (M14) of the same molecule?
A: 0.459 µM (active)

Q: Which GI50 (RXF 393) does the source give for `CCCCOC(=O)NC(Nc1ccc(S(=O)(=O)Nc2ccc(OC)nn2)cc1)(C(F)(F)F)C(F)(F)F` here?
A: > 100 µM (inactive)

Q: And the GI50 (SW-620)?
A: > 100 µM (inactive)

Q: What about the GI50 (OVCAR-3) of the same molecule?
A: > 100 µM (inactive)

Q: And the GI50 (HCT-15)?
A: > 100 µM

Q: What about the GI50 (EKVX) of the same molecule?
A: > 100 µM (inactive)

Q: What about the GI50 (NCI-H226) of the same molecule?
A: > 100 µM (inactive)

Q: And the GI50 (MDA-MB-435)?
A: > 100 µM (inactive)

Q: What about the GI50 (HT-29) of the same molecule?
A: > 100 µM (inactive)

Q: What about the GI50 (MOLT-4) of the same molecule?
A: > 100 µM (inactive)

Q: What about the GI50 (MDA-N) of the same molecule?
A: > 100 µM (inactive)

Q: What about the GI50 (HCT-116) of the same molecule?
A: > 100 µM (inactive)

Q: What about the GI50 (U-251) of the same molecule?
A: > 100 µM (inactive)

Q: What about the GI50 (DU-145) of the same molecule?
A: > 100 µM (inactive)

Q: And the GI50 (NCI-H23)?
A: > 100 µM (inactive)

Q: What about the GI50 (UACC-257) of the same molecule?
A: > 100 µM (inactive)

Q: And the GI50 (HCC 2998)?
A: > 100 µM (inactive)

Q: What about the GI50 (Malme-3M) of the same molecule?
A: > 100 µM (inactive)

Q: And the GI50 (RPMI-8226)?
A: > 100 µM (inactive)

Q: What about the GI50 (M14) of the same molecule?
A: > 100 µM (inactive)
